Values quoted from earlier work as cited in publication PMC6952392, “A combined computational and experimental strategy identifies mutations conferring resistance to drugs targeting the BCR-ABL fusion protein” (Communications Biology, 2020).
Where two headings read alike, the source gives them in different places.

Assays:
[1] = safety window

Structure (SMILES): Cc1cn(-c2cc(NC(=O)c3ccc(C)c(Nc4nccc(-c5cccnc5)n4)c3)cc(C(F)(F)F)c2)cn1 [nilotinib]
- effective safe plasma concentration [1]: < 1500 ng/mL

Structure (SMILES): Cc1ccc(C(=O)Nc2ccc(CN3CCN(C)CC3)c(C(F)(F)F)c2)cc1C#Cc1cnc2cccnn12 [ponatinib]
- in vitro inhibitory activity (BCR-ABL; general statement, no reference given): sub-nanomolar range

Structure (SMILES): COc1cc(Nc2c(C#N)cnc3cc(OCCCN4CCN(C)CC4)c(OC)cc23)c(Cl)cc1Cl [bosutinib]
- in vitro inhibitory activity (BCR-ABL): sub-nanomolar range
